Measured values from paper PMC10620772, “Design, synthesis, and biological evaluation of new pyrimidine-5-carbonitrile derivatives as novel anti-cancer, dual EGFR^WT/COX-2 inhibitors with docking studies” (RSC Advances, 2023).
pIC50: −log10 of the molar value. “And” between values parts separate entries of the source, which are not always exact repeats. Equal values may be shown once. “Also recorded” adds a separate entry of the source. Read-outs that look alike come from different tables or passages of the source.

Assays:
Format in all cases: cell-based, human
SK-OV-3 = test: NCI60 antitumor screening
SW-620 = test: NCI60 antitumor screening
OVCAR-4 = test: NCI60 antitumor screening
LOX IMVI = test: NCI60 antitumor screening
MDA-MB-231/ATCC = test: NCI60 antitumor screening; conditions: Homo sapiens; 10 μM single dose; MDA-MB-231/ATCC (breast cancer); read-out: growth inhibition percent (GI%)
SR = test: NCI60 antitumor screening
UO-31 = test: NCI60 antitumor screening; conditions: Homo sapiens; 10 μM single dose; UO-31 (renal cancer); read-out: growth inhibition percent (GI%)
COLO 205 = test: NCI60 antitumor screening
NCI-H226 = test: NCI60 antitumor screening
RXF 393 = test: NCI60 antitumor screening
HCT-116 = test: NCI60 antitumor screening
UACC-62 = test: NCI60 antitumor screening
HCC-2998 = test: NCI60 antitumor screening
HOP-92 = test: NCI60 antitumor screening
SK-MEL-2 = test: NCI60 antitumor screening; conditions: Homo sapiens; 10 μM single dose; SK-MEL-2 (melanoma); read-out: growth inhibition percent (GI%)
NCI60 cell lines panel = test: NCI60 antitumor screening, full panel
Outline: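 Single-concentration screen at 10 μM across the NCI60 panel (leukaemia, NSCLC, colon, CNS, melanoma, ovarian, renal, prostate, breast). Results are expressed as percent growth inhibition (GI%) of treated lines.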

SK-MEL-28 = test: NCI60 antitumor screening
BT-549 = test: NCI60 antitumor screening
NCI/ADR-RES = test: NCI60 antitumor screening
NCI-H23 = test: NCI60 antitumor screening
DU-145 = test: NCI60 antitumor screening
RPMI-8226 = test: NCI60 antitumor screening
Colo 205 cells = test: Cell cycle analysis by flow cytometry; conditions: treated at IC50
Method: Inhibition of the EGFR^WT/COX-2 pathway has been linked to alterations in cell survival and proliferation, as reported.[22,40]
Cell Culture Unit, VACSERA, Cairo, Egypt, conducted an apoptosis investigation.
Results reported as DNA% of each cell cycle phase: (S, G1, G2, M). The following reported procedure was followed; (1) applying compounds 4e and 4f on Colo 205 cell line separately, then the Colo 205 was cultured. (2) The cells were collected in PBS diluted by nanopure water as a single cell suspension (by adding trypsine to dissociate cells). (3) Centrifuge cells by 500×g for 5 min, decant the supernatant. (4) Using PBS wash the cells, gently tapping the tube to resuspend cells. (5) In ice bath fix the cells in 66% cooled ethanol, stored in +4 °C 2 h at least (6) put the sample on bench at room temperature, inverted tube gently to resuspend cells. (7) Centrifuge, discard supernatant, wash and resuspend cells once more time. (8) Gently adding PI solution with RNAase (preventing RNA staining and interfering results), (9) Incubate samples in R.T, dark conditions for 20 min (10) transfer samples into ice, dark conditions. (11) Genteelly tapping to resuspend cells which settled during incubation step. (12) Put sample into flow cytometer and run it. Detect the fluorescence of protium iodide in FL2.[41,42] Additional assessment of the pro-apoptotic effect was performed by using Annexin V-FITC and propidium iodide.

EKVX = test: NCI60 antitumor screening
OVCAR-8 = test: NCI60 antitumor screening
[1] = Homo sapiens, OVCAR-4, five-dose

SMILES: N#Cc1c(-c2ccc(F)cc2)nc(SCc2ccccc2)nc1N1CCNCC1 [4e, 2-(Benzylthio)-4-(4-fluorophenyl)-6-(piperazin-1-yl) pyrimidine-5-carbonitrile]
- GI50 (SK-OV-3; Homo sapiens, SK-OV-3, five-dose): 16 µM
- CC50 (SK-OV-3; Homo sapiens, SK-OV-3, five-dose, read-out: LC50 (the source's name)): 54.6 µM
- inhibition at 10 µM (SK-OV-3; Homo sapiens, 10 μM single dose, SK-OV-3 (ovarian cancer), read-out: growth inhibition percent (GI%)): > 100%
- TGI (SK-OV-3; five-dose): 29.50 µM
- GI50 (SW-620; Homo sapiens, SW-620, five-dose): 3.38 µM
- CC50 (SW-620; Homo sapiens, SW-620, five-dose, read-out: LC50 (the source's name)): 40.9 µM
- inhibition at 10 µM (SW-620; Homo sapiens, 10 μM single dose, SW-620 (colon cancer), read-out: growth inhibition percent (GI%)): > 100%
- TGI (SW-620; five-dose): 13.10 µM
- GI50 (OVCAR-4; [1]): 15.7 µM
- LC50 (lethal concentration, 50% cell kill) (OVCAR-4; [1]): 74.7 µM
- inhibition at 10 µM (OVCAR-4; Homo sapiens, 10 μM single dose, OVCAR-4 (ovarian cancer), read-out: growth inhibition percent (GI%)): > 100%
- TGI (OVCAR-4; five-dose): 34.20 µM
- GI50 (LOX IMVI; Homo sapiens, LOX IMVI, five-dose): 1.71 µM
- CC50 (LOX IMVI; Homo sapiens, LOX IMVI, five-dose, read-out: LC50 (the source's name)): 6.48 µM
- inhibition at 10 µM (LOX IMVI; Homo sapiens, 10 μM single dose, LOX IMVI (melanoma), read-out: growth inhibition percent (GI%)): > 100%
- TGI (LOX IMVI; five-dose): 3.33 µM
- inhibition at 10 µM (MDA-MB-231/ATCC): > 100%
- GI50 (SR; Homo sapiens, SR, five-dose): 1.92 µM
- CC50 (SR; Homo sapiens, SR, five-dose, read-out: LC50 (the source's name)): 13.8 µM
- inhibition at 10 µM (SR; Homo sapiens, 10 μM single dose, SR (leukaemia), read-out: growth inhibition percent (GI%)): > 100%
- TGI (SR; five-dose): 4.61 µM
- inhibition at 10 µM (UO-31): > 100%
- pIC50 (COLO 205; Homo sapiens, COLO 205): 5.78
- GI50 (COLO 205; Homo sapiens, COLO 205, five-dose): 1.66 µM
- CC50 (COLO 205; Homo sapiens, COLO 205, five-dose, read-out: LC50 (the source's name)): 6.04 µM
- inhibition at 10 µM (COLO 205; Homo sapiens, 10 μM single dose, COLO 205 (colon cancer), read-out: growth inhibition percent (GI%)): > 100%
- TGI (COLO 205; five-dose): 3.17 µM
- GI50 (NCI-H226; Homo sapiens, NCI-H226, five-dose): 13.8 µM
- CC50 (NCI-H226; Homo sapiens, NCI-H226, five-dose, read-out: LC50 (the source's name)): 81.3 µM
- inhibition at 10 µM (NCI-H226; Homo sapiens, 10 μM single dose, NCI-H226 (non-small cell lung cancer), read-out: growth inhibition percent (GI%)): > 100%
- TGI (NCI-H226; five-dose): 33.40 µM
- GI50 (RXF 393; Homo sapiens, RXF 393, five-dose): 3.14 µM
- CC50 (RXF 393; Homo sapiens, RXF 393, five-dose, read-out: LC50 (the source's name)): 44.2 µM
- inhibition at 10 µM (RXF 393; Homo sapiens, 10 μM single dose, RXF 393 (renal cancer), read-out: growth inhibition percent (GI%)): > 100%
- TGI (RXF 393; five-dose): 14.80 µM
- GI50 (HCT-116; Homo sapiens, HCT-116, five-dose): 3.51 µM
- CC50 (HCT-116; Homo sapiens, HCT-116, five-dose, read-out: LC50 (the source's name)): 38.1 µM
- inhibition at 10 µM (HCT-116; Homo sapiens, 10 μM single dose, HCT-116 (colon cancer), read-out: growth inhibition percent (GI%)): > 100%
- TGI (HCT-116; five-dose): 11.60 µM
- GI50 (UACC-62; Homo sapiens, UACC-62, five-dose): 14.4 µM
- CC50 (UACC-62; Homo sapiens, UACC-62, five-dose, read-out: LC50 (the source's name)): 55 µM
- inhibition at 10 µM (UACC-62; Homo sapiens, 10 μM single dose, UACC-62 (melanoma), read-out: growth inhibition percent (GI%)): > 100%
- TGI (UACC-62; five-dose): 28.20 µM
- GI50 (HCC-2998; Homo sapiens, HCC 2998, five-dose): 1.76 µM
- CC50 (HCC-2998; Homo sapiens, HCC 2998, five-dose, read-out: LC50 (the source's name)): 5.89 µM
- inhibition at 10 µM (HCC-2998; Homo sapiens, 10 μM single dose, HCC-2998 (colon cancer), read-out: growth inhibition percent (GI%)): > 100%
- TGI (HCC-2998; five-dose): 3.22 µM
- GI50 (HOP-92; Homo sapiens, HOP-92, five-dose): 4.2 µM
- CC50 (HOP-92; Homo sapiens, HOP-92, five-dose, read-out: LC50 (the source's name)): 48.4 µM
- inhibition at 10 µM (HOP-92; Homo sapiens, 10 μM single dose, HOP-92 (non-small cell lung cancer), read-out: growth inhibition percent (GI%)): > 100%
- TGI (HOP-92; five-dose): 18.10 µM
- inhibition at 10 µM (SK-MEL-2): > 100%
- One-dose activity over the NCI60 panel (NCI60 cell lines panel; 10 μM): lethal effect to all cancer subpanels; also recorded: Lethal to all NCI60 cell lines
- inhibition at 10 µM (NCI60 cell lines panel; Homo sapiens, 10 μM single dose, mean over NCI60 cell lines, read-out: Mean growth inhibition percent (GI%)): > 100%
- GI50 (NCI60 cell lines panel; Homo sapiens, average of all cell lines, read-out: Full panel MG-MID (GI50)): 10.7 µM
- GI50 (NCI60 cell lines panel; Homo sapiens, five-dose, read-out: GI50 range, leukemia and colon cancer cell lines): 1.77 to 17.1 µM
- CC50 (NCI60 cell lines panel; Homo sapiens, five-dose, read-out: LC50 range over examined cell lines): 5 to 69 µM
- Full panel MG-MID (TGI) (NCI60 cell lines panel; average of all cell lines): 23.60 μM and 23.60 ^e μM
- GI50 (SK-MEL-28; Homo sapiens, SK-MEL-28, five-dose): 16.3 µM
- CC50 (SK-MEL-28; Homo sapiens, SK-MEL-28, five-dose, read-out: LC50 (the source's name)): 56.3 µM
- inhibition at 10 µM (SK-MEL-28; Homo sapiens, 10 μM single dose, SK-MEL-28 (melanoma), read-out: growth inhibition percent (GI%)): > 100%
- TGI (SK-MEL-28; five-dose): 30.30 µM
- GI50 (BT-549; Homo sapiens, BT-549, five-dose): 13 µM
- CC50 (BT-549; Homo sapiens, BT-549, five-dose, read-out: LC50 (the source's name)): 53.6 µM
- inhibition at 10 µM (BT-549; Homo sapiens, 10 μM single dose, BT-549 (breast cancer), read-out: growth inhibition percent (GI%)): > 100%
- TGI (BT-549; five-dose): 26.40 µM
- GI50 (NCI/ADR-RES; Homo sapiens, NCI/ADR-RES, five-dose): 11.7 µM
- CC50 (NCI/ADR-RES; Homo sapiens, NCI/ADR-RES, five-dose, read-out: LC50 (the source's name)): 64.4 µM
- inhibition at 10 µM (NCI/ADR-RES; Homo sapiens, 10 μM single dose, NCI/ADR-RES (ovarian cancer), read-out: growth inhibition percent (GI%)): > 100%
- TGI (NCI/ADR-RES; five-dose): 27.40 µM
- GI50 (NCI-H23; Homo sapiens, NCI-H23, five-dose): 15.1 µM
- CC50 (NCI-H23; Homo sapiens, NCI-H23, five-dose, read-out: LC50 (the source's name)): 56.5 µM
- inhibition at 10 µM (NCI-H23; Homo sapiens, 10 μM single dose, NCI-H23 (non-small cell lung cancer), read-out: growth inhibition percent (GI%)): > 100%
- TGI (NCI-H23; five-dose): 29.30 µM
- GI50 (DU-145; Homo sapiens, DU-145, five-dose): 15 µM
- CC50 (DU-145; Homo sapiens, DU-145, five-dose, read-out: LC50 (the source's name)): 56 µM
- inhibition at 10 µM (DU-145; Homo sapiens, DU-145, read-out: growth inhibition percent (GI%)): > 100%
- TGI (DU-145; five-dose): 29.00 µM
- GI50 (RPMI-8226; Homo sapiens, RPMI-8226, five-dose): 3.99 µM
- CC50 (RPMI-8226; Homo sapiens, RPMI-8226, five-dose, read-out: LC50 (the source's name)): 65.4 µM
- inhibition at 10 µM (RPMI-8226; Homo sapiens, 10 μM single dose, RPMI-8226 (leukaemia), read-out: growth inhibition percent (GI%)): > 100%
- TGI (RPMI-8226; five-dose): 17.50 µM
- % G0–G1 (Colo 205 cells; DNA content): 61.31%
- % G2/M (Colo 205 cells; DNA content): 2.87%
- % S (Colo 205 cells; DNA content): 35.82%
- Cell cycle comment (Colo 205 cells): Cell growth arrest@ G1
- Increase of cells at G0–G1 phase vs control (Colo 205 cells): ~1.2 fold
- GI50 (EKVX; Homo sapiens, EKVX, five-dose): 12 µM
- LC50 (EKVX; Homo sapiens, EKVX, five-dose): 51 µM
- inhibition at 10 µM (EKVX; Homo sapiens, 10 μM single dose, EKVX (non-small cell lung cancer), read-out: growth inhibition percent (GI%)): > 100%
- TGI (EKVX; five-dose): 24.80 µM
- GI50 (OVCAR-8; Homo sapiens, OVCAR-8, five-dose): 6.21 µM
- CC50 (OVCAR-8; Homo sapiens, OVCAR-8, five-dose, read-out: LC50 (the source's name)): 59.1 µM
- inhibition at 10 µM (OVCAR-8; Homo sapiens, 10 μM single dose, OVCAR-8 (ovarian cancer), read-out: growth inhibition percent (GI%)): > 100%
- TGI (OVCAR-8; five-dose): 21.80 µM
